Measured values: US8193175B2, “Ruthenium complexes for treating cancers” (Universite de Strasbourg, priority 2004, dated 2012)

Assays:
A172 cells [1] = experiment: MTT test on A172 cells, combination with NCS or Taxol; type: cell-based, human; conditions: concentration bringing about 10% of the maximum effect; 48 hrs
Description: FIG. 7: The A172 cells were cultivated in plates with 96 wells in DMEM medium with 10% calf serum. At 30% confluence, the cells were treated for 48 hrs with cisplatinum, CDR6, NCS (Neocarzinostatin), Taxol or a combination of these drugs in the concentrations indicated. The quantity of cells present in the wells was evaluated by an MTT (MTT, Sigma) test, the reaction products of which are quantified with an Elisa plate reader (Metertech, USA) (490-650 nm). […] The graphs show an average of 8 points with the typical spacings over one experiment representative of 4 carried out. The thick black line indicates the IC50 for each graph.
The mechanisms induced by various anticancer drugs are different according to the mode of action of these drugs. […] NCS induces DNA double strand breaks, similar to those of gamma rays (Smith and Nicolaou 1996). Taxol disrupts the mitotic spindles (Oberlies and Kroll 2004).
A comparison was made using two doses of NCS and two doses of Taxol. The one enables one to expect the IC50, the other leads to a reduction by 10% of the cell viability after 48 hrs treatment. These two concentrations were combined with a concentration of ruthenium derivative or cisplatinum bringing about 10% of the maximum effect.

[2] = test system: A172, HS683, N2A, and SH5Y; experiment: MTT test on glioblastoma and neuroblastoma lines; type: cell-based, human; conditions: 48 hrs treatment; compared with cisplatinum
Description: FIG. 1: The A172 cells were cultivated on plates with 96 wells in DMEM medium with 10% calf serum. At 30% confluence, the cells were treated for 48 hrs with cisplatinum or the various compounds derived from ruthenium in the concentrations indicated (1, 5, 15, 50 μM). The quantity of cells present in the wells was evaluated by an MTT (MTT, Sigma) test of which the products of the reaction are quantified with an Elisa plate reader (Metertech, USA) (490-650 nm). The results obtained were related to the values of the control condition (100% viability). The graphs show an average of 8 points with the typical spacings over one experiment representative of 4 carried out. The thick black line indicates the IC50 for each graph.
TABLE 2: a summary of the results obtained on various cell lines and primary glial cultures. The experiments were carried out under the same conditions as those described for the A172 cells. Each IC50 is an indicative value obtained over 4 independent experiments.
(§1) The first step towards characterising the anticancerous effects of the compounds derived from ruthenium consists of testing their activity on tumoral lines kept in culture and comparing these effects on lines which have different characteristics as regards resistance to the anticancer treatments. Two lines of human glioblastomas (A172, HS683) and two lines of neuroblastomas (N2A and SH5Y) were used in order to test the cytostatic effects of the compounds according to the invention. Cisplatinum was chosen as the cytotoxic comparison agent. In a first approach, an MTT test was used to measure the activity of a mitochondrial enzyme, and this gives an estimate of the number of cells. Then, the cytotoxic effects of the compounds according to the invention were characterised in greater detail by analysing the morphology of the nucleus and the activation of caspase 3—two markers of cell apoptosis.

A172 glioblastoma cells = experiment: Nucleus morphology and caspase 3 activation in A172 cells; type: cell-based, human
Source text: FIG. 2: A—The A172 cells were cultivated on glass slides. […] The cells were then fixed in 4% paraformaldehyde, permeabilised with 0.1% NP40 and marked with Hoechst dye (blue) and the anti-p20 antibody (active fragment of caspase 3, in red). The cells were then observed under the fluorescence microscope. B—Graphic representation of the number of cells with an apoptotic, fragmented or condensed nucleus. The bars are an average of two slides from one experiment representative of 3 carried out. C—In parallel, proteic extracts were prepared from cells treated with various drugs (cisplatinum 15 μM; CDR225 μM; CDR615 μM; CDR915 μM) and following denaturation the extracts were deposited on a !0% SDS-Page gel. After migration, the proteins were transferred onto nitrocellulose (Biorad, 0.2 μm) and the p20 fragment of the caspase 3 was detected by Western blot with an anti-p20 antibody (1/1000, R&D System).
as §1

A172 cells [3] = experiment: Western blot of p53, p73, p21 and Bax in A172 cells; type: cell-based, human
Description: FIG. 3: Detection of p53 and p73 in A172 cells treated with CDR. The A172 cells were treated with the concentrations indicated (2, 5 or 10 μM) with the various compounds and for the periods of time indicated (24 hrs or 6 hrs). The proteins were extracted with a lysis buffer and were separated on 10% SDS-Page gel. After being transferred onto nitrocellulose, the p53 and p73 proteins were detected by Western blot using anti-p53 (pAb1801) and anti-p73 (1/200, Ab2, Oncogene) antibody.
FIG. 4: Detection of p21 and Bax in A172 cells treated with CDR. The A172 cells were treated with the various compounds (10 μM) for 24 hrs. The proteins were extracted with a lysis buffer and were separated on 10% SDS-Page gel. After being transferred onto nitrocellulose, the p21 and Bax proteins were detected by Western blot using anti-p21 (1/200, Oncogene) and anti-Bax (1/2000, Santacruz) antibody.
(§2) For the purpose of determining the molecular mechanisms used by the ruthenium derivatives and comparing them with those induced by cisplatinum, the expression of p53, p73 p21 and bax in the A172 and HCT116 lines was analysed.

HCT116 cells = experiment: Western blot of p53, p21 and phospho-histone H3 in HCT116 cells; type: cell-based, human; conditions: 10 μM
Description: FIG. 5: Detection of p53, p21 and of the phosphorylation of histone H3 in the HCT116 cells treated with CDR. The HCT116 cells were treated with the various compounds (10 μM) and for the periods of time indicated (24 hrs or 6 hrs). The proteins were extracted with a lysis buffer and were separated on 10% SDS-Page gel. After being transferred onto nitrocellulose, the p53, p21 proteins and histone H3 were detected by Western blot using anti-p53 (pAb1801), anti-p21 (1/200, Oncogene) antibody and anti-phospho serine 10 of histone H3 (1/2000, Santacruz).
as §2

[4] = test system: 2008/CMV and 2008/ATP7B cells; experiment: MTT test on 2008/CMV and 2008/ATP7B cells; type: cell-based; conditions: 48 hrs
Description: FIG. 6: The 2008/CMV and 2008/ATP7B cells (contributed by Dr. Howell) were cultivated in plates with 96 wells in DMEM medium with 10% calf serum. At 30% confluence, the cells were treated for 48 hrs with cisplatinum or the various compounds derived from ruthenium in the concentrations indicated (1, 5, 15, 50 μM). The quantity of cells present in the wells was evaluated by an MTT (MTT, Sigma) test. The results obtained were related to the values of the control condition (100% viability). The graphs show an average of 8 points with the typical spacings over one experiment representative of 3 carried out. The thick black line indicates the IC50 for each graph.
One of these mechanisms is the overexpression of the copper export pump (ATP7B) which expels cisplatinum from the cell. It has been shown that this molecule is overexpressed in human tumours and that cell lines which overexpress this molecule are more resistant to cisplatinum and carboplatinum than control lines.
Two cell lines derived from 2008 cells (Katano, Safaei et al. 2003) were studied. One overexpresses the ATP7B pump, and the other only contains the control vector. The cytostatic activity of the cisplatinum and the CDR was tested in these two lines using the MTT test.

CN(C)Cc1cccc[c]1[Ru+].CP(C)c1ccccc1.F[P-](F)(F)(F)(F)F.c1ccccc1 [Compound 6, [Ru (η^6-C6H6)-2-(CH2NMe2)—C6H4—(PMe2Ph)]PF6]
effectiveness of co-treatment with NCS or Taxol (A172 cells [1]): significantly more effective in relation to a co-treatment with cisplatinum
reduction of the number of tumoral cells (MTT) [2]: at a concentration similar to or lower than that of cisplatinum
nuclear condensation and fragmentation (A172 glioblastoma cells; 48 hrs treatment): induce nuclear condensation and fragmentation characteristic of apoptosis
proteic levels of the active fragment of caspase 3 (Western blot) (A172 glioblastoma cells; cisplatinum 15 μM, CDR6 15 μM, CDR9 15 μM): increasing the proteic levels of the active fragment of caspase 3
expression of p21 and Bax (A172 cells [3]; 10 μM, 24 hours treatment): induces the expression of p21 and Bax
p53 proteic levels (A172 cells [3]; 6 hrs treatment): induce p53
p53 proteic levels (A172 cells [3]; 24 hrs treatment): no effect
increase in expression of p21 and inhibition of phosphorylation of histone H3 (HCT116 cells): identical for CDR 6 and cisplatinum
induction of p53 (HCT116 cells; 6 hrs to 24 hrs): induction of p53
sensitivity of the line expressing ATP7B relative to the control line (MTT) [4]: equivalent to that of the control line
